According to PubChem BioAssay AID2060503 (Molecular Pharmacology Branch, DTP, NCI, 2025):
“And” between values parts separate entries of the source, which are not always exact repeats. Equal values may be shown once. Blank lines part the entries; values can stand above or below the molecule they belong to.

System: 817829-284-R-J1-PDC complex spheroids, viability
Assay: Anticancer human tumor 817829-284-R-J1-PDC patient-derived colon adenocarcinoma cell line growth inhibition [GQUAD]
Details: for viability, T/C: stronger effect = lower value
Text: DNA G-quadruplex Stabilizer Agents in Combinations in Complex Spheroids
A high-throughput screen of multi-cell type tumor spheroids was designed to identify active combinations of DNA G-quadruplex stabilizer agents and targeted small molecules. Complex spheroids include a stromal component modeled by human endothelial cells (HUVEC) and fibroblasts modeled by human mesenchymal stem cells (MSCs). The concentration ranges selected for each drug and investigational agent were based upon clinically achievable concentrations if the clinical Cmax of the agent was known.
Compounds. The drugs and investigational agents: pidnarulex (CX-5461; NSC782164), APTO-253 (NSC789042), BRACO-19 (NSC847499), peposertib (NSC802822), ceralasertib (NSC780249), elimusertib (NSC800525), camonsertib (NSC841442), AZD-1390 (NSC803789), olaparib (NSC753686), talazoparib (NSC767125), ART-558 (NSC835418), sotorasib (NSC818433), MRTX-1133 (NSC836407), SN-38 (NSC673596), topotecan (NSC609699), etoposide (NSC141540), doxorubicin (NSC123127), gemcitabine (NSC613327), 5-fluorouracil (NSC19893), paclitaxel (NSC125973), vemurafenib (NSC761431), panobinostat (NSC761190), R-306465 (JNJ-16241199; NSC773264), adavosertib (NSC754352), TP-3654 (NSC805149), carboplatin (NSC241240), KSQ-4279 (NSC840948), and staurosporine (NSC755774) were obtained from the National Cancer Institute (NCI) Developmental Therapeutics Program Chemical Repository (34). The FDA-approved anticancer drug set is available from the NCI Developmental Therapeutics Program. […] The stock solutions were prepared in dimethyl sulfoxide (DMSO, Sigma-Aldrich, St. Louis, MO, cat. D2650) at 800-fold the tested concentration and stored at -70 degrees C prior to their use. All drugs and investigational agents were tested over a range starting from a high concentration at or near the clinical Cmax and decreasing in half-log increments. If the clinical Cmax for an agent had not been determined, the highest concentration tested was 10 microM.
2.3 Cell Culture. All cells were maintained in an incubator at 37 degrees C and 5% CO2 with 95% humidity. The PDC lines were cultured according to standard operating procedures established by the NCI PDMR. All PDCs were thawed and cultured in Matrigel-coated flasks prepared with a working solution of 1X Ham's F-12 nutrient mix, without supplementation (Invitrogen, cat. 11765054), 100 U/mL penicillin-streptomycin (Invitrogen, cat. 15140122), and 2.5% Matrigel (Corning Inc., cat. 354248) for the first three passages. The 857933-349-R-J2-PDC line was cultured in 6C/Colon 1B media, which includes advanced DMEM/F-12 (Thermo Fisher Scientific, cat. 12634028), 10 mM HEPES (Thermo Fisher Scientific, cat. 15630080), 1X GlutaMAX supplement (Thermo Fisher Scientific, cat. 35050061), 0.1 mg/mL primocin (InvivoGen, cat. ant-pm-2), 10% defined fetal bovine serum, heat inactivated (HyClone Laboratories Inc., cat. SH30070.03HI), 50% L-WRN conditioned media (ATCC, cat. CRL-3276), 1.25 mM N-Acetyl-L-cysteine (Sigma-Aldrich, cat. A9165), 10 mM nicotinamide (Sigma-Aldrich, cat. N0636), 1X B-27 supplement (Thermo Fisher Scientific, cat. 17504044), 1X N-2 supplement (Thermo Fisher Scientific, cat. 17502048), 10 microM Y-27632 dihydrochloride (Tocris Bioscience, cat. 1254), and 50 ng/mL human EGF recombinant protein (Thermo Fisher Scientific, cat. PHG0311). The 485176-168-R4-J1-PDC line was cultured in Panc media, which includes all 6C/Colon 1B media components plus 100 ng/mL human FGF-10 (Thermo Fisher Scientific, cat. 100-26), 500 nM SB-431542 (Selleckchem, cat. S1067), and gastrin (Tocris, cat. 3006).
[…]

[1] = compound alone, run of 02/20/2024
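Note: spheroids exposed to agents for 7 days before readout.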
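Throughout, for viability, T/C: percent viability relative to DMSO vehicle control taken as 100%.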

SMILES: COc1cc(C2c3cc4c(cc3C(OC3OC5COC(C)OC5C(O)C3O)C3COC(=O)C23)OCO4)cc(OC)c1O (stereo not drawn)
viability, T/C (compound 0.0316 µM): 115% and 98.4% and 91%
viability, T/C (compound 0.1 µM): 62% and 67.7% and 92.4%
viability, T/C (compound 0.316 µM): 29.3% and 26.7% and 34.1%
viability, T/C (compound 1 µM): 26.2% and 28.1% and 42.2%
viability, T/C (compound 3.16 µM): 22.6% and 26.7% and 29.9%
viability, T/C (compound 10 µM): 10.5% and 9.2% and 10.2%
IC50 (curve of compound): 159 nM and 166 nM and 230 nM

SMILES: COc1cccc2c1C(=O)c1c(O)c3c(c(O)c1C2=O)CC(O)(C(=O)CO)CC3OC1CC(N)C(O)C(C)O1 (stereo not drawn)
viability, T/C (compound 0.0316 µM): 100% and 82% and 106%
viability, T/C (compound 0.1 µM): 32.7% and 42.4% and 30.9%
viability, T/C (compound 0.316 µM): 30.1% and 39% and 26.2%
viability, T/C (compound 1 µM): 9.58% and 10.5% and 8.06%
viability, T/C (compound 3.16 µM): 0.57% and 0.58% and 0.61%
viability, T/C (compound 10 µM): 0.32% and 0.4% and 0.19%
IC50 (curve of compound): 84.7 nM and 99.1 nM and 82.1 nM

SMILES: COc1ncnc(C2CC2)c1-c1ncc2cnn(Cc3ccc(-c4nc(C(F)(F)F)cn4C(C)C)cc3)c2n1
viability, T/C (compound 0.0316 µM): 96.6% and 97.8% and 103%
viability, T/C (compound 0.1 µM): 97.4% and 111% and 113%
viability, T/C (compound 0.316 µM): 99.2% and 107% and 110%
viability, T/C (compound 1 µM): 84.8% and 117% and 106%
viability, T/C (compound 3.16 µM): 102% and 106% and 111%
viability, T/C (compound 10 µM): 116% and 114% and 115%
IC50 (curve of compound): > 10000 nM

SMILES: Cc1[nH]c2ccc(F)cc2c1-c1nc2c3cccnc3c3ncccc3c2[nH]1
viability, T/C (compound 0.1 µM): 103% [middle of 12 runs]
viability, T/C (compound 0.316 µM): 106% [middle of 12 runs]
viability, T/C (compound 1 µM): 99.8% [middle of 12 runs]
IC50 [1]: 3.3 µM [middle of 8 runs]

SMILES: Cc1cccc(N(C)C(=O)C2C(O)CCN2c2nc(C)cc(C(F)(F)F)c2C#N)c1 (stereo not drawn)
viability, T/C (compound 0.0316 µM): 94.3% and 102% and 95.3%
viability, T/C (compound 0.1 µM): 97.8% and 81.6% and 93.5%
viability, T/C (compound 0.316 µM): 92.5% and 107% and 96.8%
viability, T/C (compound 1 µM): 88.1% and 99% and 82.6%
viability, T/C (compound 3.16 µM): 92.4% and 88.4% and 96.7%
viability, T/C (compound 10 µM): 96.7% and 83.4% and 98.1%
IC50 (curve of compound): > 10000 nM

SMILES: Cn1ncnc1[C@H]1c2n[nH]c(=O)c3cc(F)cc(c23)N[C@@H]1c1ccc(F)cc1
viability, T/C (compound 0.000999 µM): 111% and 90.3% and 92.1%
viability, T/C (compound 0.00316 µM): 86.5% and 83.5% and 92.8%
viability, T/C (compound 0.00999 µM): 106% and 112% and 101%
viability, T/C (compound 0.0316 µM): 91.3% and 82.8% and 82%
viability, T/C (compound 0.0999 µM): 83.5% and 82.1% and 84%
viability, T/C (compound 0.316 µM): 72.2% and 75.2% and 66.5%
IC50 (curve of compound): > 316 nM

SMILES: Nc1ccn(C2OC(CO)C(O)C2(F)F)c(=O)n1 (stereo not drawn)
viability, T/C (compound 0.0316 µM): 24.6% and 9.45% and 15.3%
viability, T/C (compound 0.1 µM): 5.55% and 8% and 4.56%
viability, T/C (compound 0.316 µM): 7.44% and 8.2% and 6.55%
viability, T/C (compound 1 µM): 5.74% and 7.67% and 5.48%
viability, T/C (compound 3.16 µM): 6.14% and 6.82% and 5.88%
viability, T/C (compound 10 µM): 3.68% and 3.93% and 3.72%
IC50 (curve of compound): < 31.6 nM

SMILES: O=c1[nH]cc(F)c(=O)[nH]1
viability, T/C (compound 0.0316 µM): 97.6% and 102% and 99.2%
viability, T/C (compound 0.1 µM): 94.3% and 91.8% and 102%
viability, T/C (compound 0.316 µM): 127% and 111% and 106%
viability, T/C (compound 1 µM): 59.1% and 63.2% and 70.3%
viability, T/C (compound 3.16 µM): 39.4% (2×) and 42.5%
viability, T/C (compound 10 µM): 30.5% and 32.8% and 30.7%
IC50 (curve of compound): 1540 nM and 1750 nM and 2140 nM

Further lines, with some results ahead:

IC50 (curve of compound): > 10000 nM and 6030 nM
SMILES: COc1ccc([C@@H](O)c2cc(-c3ncnc4cc(N5CCOCC5)ccc34)c(F)cc2Cl)nn1
viability, T/C (compound 0.0316 µM): 103% and 96.1% and 90.7%
viability, T/C (compound 0.1 µM): 90.9% and 95.3% and 105%
viability, T/C (compound 0.316 µM): 106% and 104% and 100%
viability, T/C (compound 1 µM): 80.6% and 84.1% and 83.6%
viability, T/C (compound 3.16 µM): 84.3% and 82.3% and 64.7%
viability, T/C (compound 10 µM): 53.4% and 67.6% and 39.1%

IC50 (curve of compound): 45.8 nM and 48.8 nM and 33.7 nM
SMILES: Cc1[nH]c2ccccc2c1CCNCc1ccc(/C=C/C(=O)NO)cc1
viability, T/C (compound 0.000999 µM): 110% and 93.9% and 106%
viability, T/C (compound 0.00316 µM): 101% and 100% and 86.5%
viability, T/C (compound 0.00999 µM): 127% and 124% and 113%
viability, T/C (compound 0.0316 µM): 73% and 78.2% and 52.8%
viability, T/C (compound 0.0999 µM): 3.77% and 5.53% and 6.09%
viability, T/C (compound 0.316 µM): 0.17% and 0.23% and 0.08%

IC50 [1]: 85.8 nM [middle of 11 runs]
SMILES: Cc1cnc(CNC(=O)c2c(=O)c3ccc(N4CCCN(C)CC4)nc3n3c2sc2ccccc23)cn1
viability, T/C (compound 0.0316 µM): 90.4% [middle of 12 runs]
viability, T/C (compound 0.1 µM): 39.5% [middle of 12 runs]
viability, T/C (compound 0.316 µM): 29.2% [middle of 12 runs]
viability, T/C (compound 1 µM): 23.6% [middle of 12 runs]
viability, T/C (compound 3.16 µM): 15.9% [middle of 12 runs]
viability, T/C (compound 10 µM): 0.15% [middle of 8 runs]

IC50 (curve of compound): 67.9 nM and 186 nM and 121 nM
SMILES: O=C(NO)c1cnc(N2CCN(S(=O)(=O)c3ccc4ccccc4c3)CC2)nc1
viability, T/C (compound 0.0316 µM): 114% and 111% and 117%
viability, T/C (compound 0.1 µM): 17.6% and 102% and 59%
viability, T/C (compound 0.316 µM): 0.33% and 5.46% and 5.25%
viability, T/C (compound 1 µM): 0.17% and 0.29% and 0.13%
viability, T/C (compound 3.16 µM): 0.1% and 0.26% and 0.04%
viability, T/C (compound 10 µM): 0.15% and 0.25% and 0.07%

IC50 (curve of compound): > 10000 nM
SMILES: O=C(c1cc(Cc2n[nH]c(=O)c3ccccc23)ccc1F)N1CCN(C(=O)C2CC2)CC1
viability, T/C (compound 0.0316 µM): 113% and 106% and 116%
viability, T/C (compound 0.1 µM): 87.2% and 96.7% and 103%
viability, T/C (compound 0.316 µM): 103% and 99% and 90.6%
viability, T/C (compound 1 µM): 91% and 94.4% and 89.3%
viability, T/C (compound 3.16 µM): 89.1% and 97.4% and 95.1%
viability, T/C (compound 10 µM): 57.6% and 60.7% and 49%
